Measured values: ChEMBL document CHEMBL4418497, “Compositions and methods relating to inhibiting serine hyrdoxymethyltransferase 2 activity” (2016)

What follows are compounds tested against T1, Serine hydroxymethyltransferase, mitochondrial (Homo sapiens, UniProt P34897) (assay: Inhibition of His-tagged human recombinant SHMT2 expressed in Escherichia coli BLR(DE3) assessed as reduction in NADPH level using L-serine, THF and NADP+ incubated for 5 mins by SHMT2-MTHFD coupled reaction based fluorescence assay). Conditions: read-out: IC50.
T1 sequence (P34897 whole entry): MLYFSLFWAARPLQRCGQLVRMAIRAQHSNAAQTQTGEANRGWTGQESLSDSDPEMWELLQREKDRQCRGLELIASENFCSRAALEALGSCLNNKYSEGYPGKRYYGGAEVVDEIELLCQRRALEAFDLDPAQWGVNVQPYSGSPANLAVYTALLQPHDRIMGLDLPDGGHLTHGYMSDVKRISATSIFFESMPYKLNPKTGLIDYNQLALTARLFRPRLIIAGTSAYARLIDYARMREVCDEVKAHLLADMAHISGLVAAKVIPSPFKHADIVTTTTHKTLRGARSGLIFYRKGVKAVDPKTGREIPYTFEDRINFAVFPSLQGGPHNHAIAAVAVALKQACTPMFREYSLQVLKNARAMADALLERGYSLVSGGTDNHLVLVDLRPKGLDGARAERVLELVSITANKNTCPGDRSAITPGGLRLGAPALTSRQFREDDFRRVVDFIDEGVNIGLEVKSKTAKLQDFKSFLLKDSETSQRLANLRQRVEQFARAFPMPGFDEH

| SMILES | IC50 [µM] |
| --- | --- |
| CC(C)Cn1cc(NC(=O)NC2CCCC2)c2ccccc2c1=O | 2.24 |
| COc1ccc(Nc2nc(NC3CCCC3)nc3c2cnn3C)cc1 | 2.69 |
| Cn1cc(NC(=O)NCc2cccnc2)c2ccccc2c1=O | 5.75 |
| COc1cc(NC2=C(c3ccccc3)C(=O)c3ccccc32)cc(OC)c1 | 11.5 |
| COc1ccc(NS(=O)(=O)c2cc(Br)cnc2N)cc1OC | 7.76 |
| COc1ccc(Nc2nc(Nc3ccc(OC)c(Cl)c3)c3cnn(C)c3n2)c(OC)c1 | 2.45 |
| CCCN1CCN(CCCNC(=O)c2oc3c(c2C)-c2[nH]ncc2CC3)CC1 | 5.13 |
| O=C(Nc1cc(F)c2nc(N3CCOCC3)ccc2c1)c1ccco1 | 3.55 |
| CCC1=NN(c2ccccc2)C(=O)C1 | 8.51 |
| Cc1ccc(-c2cc(Nc3cccc4cccnc34)nc(C)n2)cc1 | 1.51 |
| COc1cc2c(cc1OC)C(C)N(C(=O)Nc1cn(CC(C)C)c(=O)c3ccccc13)CC2 (configuration not stated) | 3.02 |
| COc1cc(C2CC(=O)N3CN(C4CCCCC4)CSC3=C2C#N)ccc1O (configuration not stated) | 4.37 |
| COc1ccc(Nc2nnc(Cc3ccncc3)c3ccccc23)c(OC)c1 | 3.89 |
| CC(C)Cn1cc(NC(=O)NC2CC2)c2ccccc2c1=O | 8.71 |
| COc1ccc(N2C(=O)c3cccnc3C2Nc2ccc(OC)c(OC)c2)cc1 (configuration not stated) | 2.95 |
| CCOc1ccc(Nc2ncnc3sc(C(=O)O)c(C)c23)cc1 | 9.33 |
| Cc1c(C(=O)NCCCN2CCOCC2)oc2c1-c1[nH]ncc1CC2 | 4.17 |
| COc1ccc(NC(=O)N2CCn3c(C)ccc3C2C(C)C)cc1OC (configuration not stated) | 2.69 |
| CC(C)Cn1cc(NC(=O)Nc2ccccn2)c2ccccc2c1=O | 3.31 |
| COc1cc(OC)c(NC(=O)N2CCN3CCCCC3C2)cc1Cl (configuration not stated) | 2.69 |
| CC(=O)Nc1ccc2nc(SCc3cc(=O)n4nc(C)sc4n3)sc2c1 | 3.09 |
| COc1ccc2c(c1)C=C(C(=O)Nc1ccc(OC)cc1OC)CO2 | 8.71 |
| CCC(Sc1nc2ncccc2o1)C(=O)Nc1c(C)cc(C)cc1C (configuration not stated) | 2.51 |
| O=C(Nc1ccc2c(c1)OCCO2)N1CCSc2ncccc21 | 2.75 |

| SMILES | IC50 [µM] |
| --- | --- |
| CCOC(=O)c1nc(Nc2cc(OC)ccc2OC)c2ccccc2n1 | 14.1 |
| CC(=O)Oc1cc2c(C(=O)N3CCN(c4ccccc4)CC3)c(C)oc2c2ccccc12 | 2.88 |
| COc1ccc(Cl)cc1N(C)C(=O)Nc1cn(C)c(=O)c2ccccc12 | 6.92 |
| CC(C)Cn1cc(NC(=O)N2CCC(C(N)=O)(N3CCCCC3)CC2)c2ccccc2c1=O | 2.51 |
| CC(C)Cn1cc(NC(=O)N(Cc2ccco2)CC2CCCO2)c2ccccc2c1=O (configuration not stated) | 3.89 |
| COc1cc(OC)c(N(C)C(=O)Nc2cn(C)c(=O)c3ccccc23)cc1Cl | 3.72 |
| CCC(CC)n1nc(O)c2c(C)cc(=O)[nH]c21 | 7.41 |
| COc1ccc(NC2c3ncccc3C(=O)N2Cc2ccco2)cc1OC (configuration not stated) | 12.6 |
| CC(C)Cn1cc(NC(=O)N(Cc2ccco2)C2CCCCC2C)c2ccccc2c1=O (configuration not stated) | 6.31 |
| O=C(CSc1nc2ncccc2o1)Nc1ccc(Br)cc1F | 1.82 |
| CCOc1cc(-c2nnc3[nH]c(=O)n(C)c(=O)c3n2)ccc1OC(C)C | 0.69 |
| COC(=O)c1sc(=S)n(-c2ccc3c(c2)OCO3)c1N | 2.95 |
| C=CCOc1ccc(C2CC(=O)Nc3c(-c4ccccc4OC)csc32)cc1 (configuration not stated) | 1.02 |
| COc1ccc(OC)c(NS(=O)(=O)c2cc(-c3cc(C)no3)ccc2C(C)C)c1 | 3.89 |
| Cn1cc(NC(=O)NCc2ccccn2)c2ccccc2c1=O | 4.79 |
| COc1ccc(NC(=O)N2CCC3(CC2)Nc2ccccc2-n2cccc23)c(OC)c1 | 3.47 |
| Cc1cc(C)n(-c2nnc(Nc3ccc4c(c3)OCCO4)c3ccccc23)n1 | 2.19 |
| COc1ccc(OC)c(NC(=O)N2CCN(S(=O)(=O)c3ccc4c(ccn4C)c3)CC2)c1 | 3.24 |
| CN(C)c1ccc(NC(=O)C2CC=CCC2C(=O)O)cc1 (configuration not stated) | 4.79 |
| CCCNC(=O)Nc1cn(CC(C)C)c(=O)c2ccccc12 | 2.14 |
| COc1cccc(C2CC(=O)N3CN(c4ccc(OC)cc4OC)CSC3=C2C#N)c1 (configuration not stated) | 4.37 |
| O=C1CN(S(=O)(=O)c2ccc3[nH]c4c(c3c2)CCCC4)c2ccccc2N1 | 6.76 |
| COc1cc(NC(=O)C2CCC2)cc2sc(NS(=O)(=O)c3ccccc3)nc12 | 8.13 |
| COc1ccc(OC)c(Nc2c(-c3ccc4c(c3)CCCC4)c(=O)c2=O)c1 | 2.4 |

| SMILES | IC50 [µM] |
| --- | --- |
| COc1ccc(OC)c(NC(=O)CSc2nc3ncccc3o2)c1 | 2.14 |
| Cn1c(=O)oc2cc(S(=O)(=O)N3CCC4(CC3)Nc3cc(F)ccc3-n3cccc34)ccc21 | 8.51 |
| Cn1cc(NC(=O)NCCN2CCOCC2)c2ccccc2c1=O | 6.76 |
| Cc1cc(=O)c2c(=O)n(-c3nc4ccccc4s3)[nH]c2[nH]1 | 1.62 |
| COc1cc(OC)c(NC(=O)N2CCn3cccc3C2C)cc1Cl (configuration not stated) | 12.9 |
| CN1CCc2nc3sc(C(=O)c4ccc(Cl)cc4)c(N)c3cc2C1 | 3.89 |
| CC(C)NC(=O)N1CCC2(CC1)Nc1cc(F)ccc1-n1cccc12 | 9.77 |
| CC(C)Cn1cc(NC(=O)Nc2ccc(F)cc2Cl)c2ccccc2c1=O | 1.86 |
| CCC(=O)Nc1cc(F)c2nc(N3CCOCC3)ccc2c1 | 1.55 |
| CN1CCN(CCCNC(=O)c2ccc(N3CCSc4ncccc43)s2)CC1 | 3.8 |
| COCCN1CCn2c(nc3cc(NC(=O)NC4CCCCC4)ccc32)C1 | 5.13 |
| Cn1cc(NC(=O)NCC2COc3ccccc3O2)c2ccccc2c1=O (configuration not stated) | 4.68 |
| COc1ccc(Nc2nc(NCCO)nc3c2cnn3C)cc1 | 1.86 |
| CNc1nc(Nc2ccc(OC)cc2)c2cnn(C)c2n1 | 13.8 |
| O=C1c2ccccc2C(Nc2ccc3[nH]c(-c4cccnc4)nc3c2)N1Cc1ccco1 (configuration not stated) | 9.77 |
| CCOC(=O)c1c(S(=O)(=O)Nc2ccc(OC)c(OC)c2)c(C)n(C)c1C | 8.13 |
| CCCCC(=O)Nc1cc(F)c2nc(N3CCOCC3)ccc2c1 | 1.58 |
| CCOC(=O)C1CCN(c2cc(C(=O)O)c3cc(N)ccc3n2)CC1 | 6.46 |
| Cn1cnc2cc(NCc3ccco3)ccc21 | 2.04 |
| CC(C)Cn1cc(NC(=O)N2CCCc3ccccc32)c2ccccc2c1=O | 3.02 |
| COc1cc(NC(=O)n2ncc3cc(Cl)ccc32)cc(OC)c1 | 11.8 |
| CCC1c2ccc(C)n2CCN1C(=O)Nc1cc(OC)cc(OC)c1 (configuration not stated) | 7.94 |
| Cc1nn(C)c(C)c1CNC(=O)Nc1ccc2c(c1)OCCO2 | 4.07 |

What follows are compounds tested against T2, Serine hydroxymethyltransferase, mitochondrial (Homo sapiens) (UniProt P34897) (assay: Inhibition of His-tagged human recombinant SHMT2 expressed in Escherichia coli BLR(DE3) assessed as reduction in NADPH level using L-serine, THF and NADP+ at 6.5 or 26.5 uM incubated for 5 mins by SHMT2-MTHFD coupled reaction based fluorescence assay relative to control). Conditions: not given.
T2 sequence (whole entry): T1 sequence (P34897 whole entry)

| SMILES | inhibition [%] |
| --- | --- |
| CS(=O)(=O)c1ccc2ccn(O)c2c1 | 60.3 |
| CCC(N)C(O)c1ccc(O)c(O)c1 (configuration not stated) | 87 |
| Cc1cccc(CCN2CCC(C(=O)c3ccc(NS(C)(=O)=O)cc3)CC2)n1 | 54.9 |
| c1ccc2c(N3CCNCC3)cccc2c1 | 86.1 |
| CC(C)C[C@H](N(C)C)C1(c2ccc(Cl)cc2)CCC1 | 62 |
| COC(=O)[C@@H]1C(O)CC[C@H]2CN3CCc4c([nH]c5ccccc45)[C@@H]3C[C@@H]21 (some centres not stated) | 73.9 |
| N#Cc1ccc(S(=O)(=O)Cc2cccc3ccccc23)cc1 | 54.5 |
| CN(C)N1C(=O)c2cccc3c(Br)ccc(c23)C1=O | 69.8 |
| CN1CCN(CCCN2c3ccccc3SC3C=CC(Cl)=CC32)CC1 (configuration not stated) | 61.6 |
| Cc1[nH]c2ccc(O)cc2c1CCN | 59 |
| CC(C)(C)C(=O)C(C#N)CNc1cccc2nsnc12 (configuration not stated) | 69.6 |
| NC(=O)NC1NC(=O)NC1=O (configuration not stated) | 58.2 |
| COC(=O)[C@@H]1[C@H]2C[C@H]3c4[nH]c5ccccc5c4CCN3C[C@@H]2CC[C@@H]1O | 57.4 |
| CCNc1cc(N)[n+](CC)c2[nH]nc(/N=C/c3cc(Cl)cc(Cl)c3O)c12 | 97 |
| COc1ccc2cc1Oc1ccc(cc1)C[C@H]1c3c(cc4c(c3Oc3cc5c(cc3OC)CCN(C)[C@@H]5C2)OCO4)CCN1C | 70.4 |
| Cc1nc2c(OCc3ccccc3)cccn2c1CC#N | 77.9 |

| SMILES | inhibition [%] |
| --- | --- |
| CC(=O)N[C@H]1CN2CC[C@H](O)[C@@H]2[C@@H](O)[C@@H]1O | 63.8 |
| Fc1ccc(COc2ccc(-c3nnco3)cc2)cc1 | 53.7 |
| Nc1cc(-c2ccncc2)c[nH]c1=O | 92.3 |
| Cc1cccc(C)c1NC(=O)[C@@H]1CCCCN1C | 60.1 |
| COC(=O)[C@@H]1OC(=O)C2OC23[C@]2(C)[C@H](O)CC4C(C)(C)[C@H](OC(C)=O)C[C@H](OC(C)=O)[C@]4(C)[C@H]2CC[C@@]13C (some centres not stated) | 81.8 |
| Nc1nc(=O)c2nc(CNc3ccc(C(=O)N[C@@H](CCC(=O)O)C(=O)O)cc3)cnc2[nH]1 | 53.6 |
| COc1cc2c(CCNC(C)=O)c[nH]c2cc1O | 92.7 |
| COc1ccc(OC)c(NC(=S)N2CCN(c3ncc(C(F)(F)F)cc3Cl)CC2)c1 | 60.2 |
| CC(=O)[C@H]1CC[C@H]2[C@@H]3CCC4C[C@H](O)CC[C@]4(C)[C@H]3C[C@H](O)[C@]12C (some centres not stated) | 71.6 |
| COc1cc(OC)c2c(c1Cl)OC1(C2=O)C(O)=CC(=O)CC1C (configuration not stated) | 77.8 |
| COC(=O)[C@@H](c1ccc2sccc2c1)c1ccccc1Cl | 53.3 |
| Oc1ccc2[nH]cc(C3=CCNCC3)c2n1 | 73.2 |
| CCOC(=O)[C@H](CCc1ccccc1)N[C@H](C)C(=O)N1C2CCCCC2C[C@H]1CO (some centres not stated) | 53 |
| CC(C(=O)Nc1cccc(/N=C/c2c(O)ccc3ccccc23)c1)c1ccccc1 (configuration not stated) | 60.1 |
| C=C(C)[C@H]1CC=C(C(=O)O)CC1 | 70 |
